Measured values taken from patent US20060047261A1, “Intra-arterial catheter for drug delivery” (priority 2004, published 2006).

Experiments:
[1] = intracarotid; cited from earlier work
[2] = system: New Zealand rabbits; assay: Intracarotid propofol (0.33% and 1%) before, during and after flow arrest: duration of electrocerebral silence; format: in vivo, rabbit
Procedure: The study was conducted on eight New Zealand rabbits that were subjected to six drug challenges. […] The flow arrest was produced by intravenous injection of esmolol (10 mg) and adenosine (30 mg).

[3] = system: rabbits
Procedure: After the approval of the protocol by the institution's animal care and use committee, the study was conducted on New Zealand White rabbits (1.5-2.0 kg. in weight). The animals were given full access to food and water prior to the experiment. The animals were sedated with an intramuscular ketamine (50 mg/kg). Intravenous access was obtained through an earlobe vein. Hydrocortisone 10 mg was given after the placement of an intravenous line, as it prevents hypotension, which sometimes occurs after surgical intervention in this animal species. […] End-tidal CO2 (ETCO2) was continuously monitored with Novametrix Capnomac monitor (Novametrix Medical Systems Inc., Wallingford, Conn.). […]
Fronto-parietal leads were placed and used to monitor the bilateral electrocerebral activity. Electrocerebral activity was monitored using standard stainless steel needle electrodes (impedance is <10 k Ohms). […] Fronto-parietal electro-encephalographic signals were recorded using bioamplifier (ML136, AD Instruments, Grand Junction, Colo.), with a range of 100 mV, and electrocerebral activity (or electroencephalogram) recording mode having a pass-band 0.3 to 60 Hz. […]

[4] = co-administration of intracarotid verapamil; n=14, P=0.04

In the case of `CCCC(C)C1(CC)C(=O)NC(=S)NC1=O` (stereo not drawn) [pentothal], the “loading dose of 1% pentothal” value [1] is given as “about 0.3±0.1 ml”.

For `CC(C)c1cccc(C(C)C)c1O` [propofol], the “increase of the duration of EEG silence by changing concentration” value ([2]; 0.33% vs 1% (1 or 3 mg) intracarotid, P=0.02, NS on post-hoc testing, n=8) was 2-4 folds, the “increase of the duration of EEG silence by flow arrest” value ([2]; intracarotid 1 or 3 mg during esmolol/adenosine flow arrest, n=8, P<0.0001) was 15-20 folds and the “time to complete recovery of EEG activity and systemic changes (blood pressure)” value ([3]; after last intracarotid injection) was ≤ 10 min. The EEG silence ([3]; intracarotid, volume of 0.4 ml with 0.5% propofol) was “produced EEG silence in all cases”.

For `COc1ccc(CCN(C)CCCC(C#N)(c2ccc(OC)c(OC)c2)C(C)C)cc1OC` (stereo not drawn) [verapamil], the “doses of intracarotid propofol required to produce 10 minutes of EEG silence” value [4] was “significantly increased”.
